Drawing on PubChem BioAssay AID248 (DTP/NCI, 2004), this text covers T/C for 17 molecules.

Several values for one entry are separate records, joined by “and”; a condition that tells them apart may be missing. Equal entries are not always repeated. Toxic doses and inconclusive results are not listed.

This assay relates to L1210 leukemia ip in BDF1 mice, survival T/C. The experiment in a line: NCI In Vivo Anticancer Drug Screen. Data for tumor model L1210 Leukemia (intraperitoneal) in B6D2F1 (BDF1) mice. Conditions: endpoint: mean survival time, higher = longer survival. The gist of the method:
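In this screen, tumor-bearing mice given compound are compared to those given vehicle, and their survival values are reported as a treated-to-control quotient.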

Where [1] appears, read: dose: 50.0 mg/kg/injection, schedule: Q01DX001 (ip), vehicle: saline.
The mark [2] stands for this setting: dose: 100.0 mg/kg/injection, schedule: Q01DX001 (ip), vehicle: saline.
Where [3] appears, read: dose: 200.0 mg/kg/injection, schedule: Q01DX001 (ip), vehicle: saline.
The mark [4] stands for this setting: dose: 400.0 mg/kg/injection, schedule: Q01DX001 (ip), vehicle: saline.
Setting [5] is: dose: 100.0 mg/kg/injection, schedule: Q04DX003 (ip), vehicle: saline with Tween-80.
Setting [6] is: dose: 200.0 mg/kg/injection, schedule: Q04DX003 (ip), vehicle: saline with Tween-80.
The mark [7] stands for this setting: dose: 100.0 mg/kg/injection, schedule: Q04DX003 (ip), vehicle: Klucel (hydroxypropylcellulose) (HPC).
Setting [8] is: dose: 200.0 mg/kg/injection, schedule: Q04DX003 (ip), vehicle: Klucel (hydroxypropylcellulose) (HPC).
[9] abbreviates: dose: 400.0 mg/kg/injection, schedule: Q04DX003 (ip), vehicle: Klucel (hydroxypropylcellulose) (HPC).
Setting [10] is: dose: 100.0 mg/kg/injection, schedule: Q01DX009 (ip), vehicle: saline with Tween-80.

Turning to `C=C1Sc2ccccc2N1C`, the T/C is, setting by setting: (dose: 6.25 mg/kg/injection, schedule: Q01DX015 (ip), vehicle: saline) 97 % of control; (dose: 12.5 mg/kg/injection, schedule: Q01DX015 (ip), vehicle: saline) 97 % of control; (dose: 25.0 mg/kg/injection, schedule: Q01DX015 (ip), vehicle: saline) 95 % of control; (dose: 50.0 mg/kg/injection, schedule: Q01DX015 (ip), vehicle: saline) 91 % of control.

On to `CN(C)CC/C=C1\c2ccccc2Sc2ccc(Cl)cc21`, for which the T/C was 107 % of control (dose: 0.04 mg/kg/injection, schedule: Q03HX024 (ip), vehicle: saline); 105 % of control (dose: 0.09 mg/kg/injection, schedule: Q03HX024 (ip), vehicle: saline); 102 % of control (dose: 0.18 mg/kg/injection, schedule: Q03HX024 (ip), vehicle: saline); 102 % of control (dose: 0.36 mg/kg/injection, schedule: Q01DX001 (ip), vehicle: Klucel (hydroxypropylcellulose) (HPC)); 105 % of control (dose: 0.37 mg/kg/injection, schedule: Q03HX024 (ip), vehicle: saline); 97 % of control (dose: 0.73 mg/kg/injection, schedule: Q01DX001 (ip), vehicle: Klucel (hydroxypropylcellulose) (HPC)). The T/C runs as follows: (dose: 0.74 mg/kg/injection, schedule: Q03HX024 (ip), vehicle: saline) 107 % of control; (dose: 1.46 mg/kg/injection, schedule: Q01DX001 (ip), vehicle: Klucel (hydroxypropylcellulose) (HPC)) 108 % of control; (dose: 1.49 mg/kg/injection, schedule: Q03HX024 (ip), vehicle: Klucel (hydroxypropylcellulose) (HPC)) 103 % of control; (dose: 2.92 mg/kg/injection, schedule: Q01DX001 (ip), vehicle: Klucel (hydroxypropylcellulose) (HPC)) 105 % of control; (dose: 3.8 mg/kg/injection, schedule: Q01DX001 (ip), vehicle: Klucel (hydroxypropylcellulose) (HPC)) 107 % of control; (dose: 3.9 mg/kg/injection, schedule: Q01DX009 (ip), vehicle: Klucel (hydroxypropylcellulose) (HPC)) 105 % of control. Further, the T/C was 101 % of control (dose: 5.6 mg/kg/injection, schedule: Q01DX001 (ip), vehicle: saline); 105 % of control (dose: 5.85 mg/kg/injection, schedule: Q01DX001 (ip), vehicle: Klucel (hydroxypropylcellulose) (HPC)); 104 % of control (dose: 7.5 mg/kg/injection, schedule: Q01DX001 (ip), vehicle: Klucel (hydroxypropylcellulose) (HPC)); 92 % of control (dose: 7.81 mg/kg/injection, schedule: Q01DX009 (ip), vehicle: Klucel (hydroxypropylcellulose) (HPC)); 104 % of control (dose: 11.25 mg/kg/injection, schedule: Q01DX001 (ip), vehicle: saline); 107 % of control (dose: 15.0 mg/kg/injection, schedule: Q01DX001 (ip), vehicle: Klucel (hydroxypropylcellulose) (HPC)). Besides, the T/C by setting is: (dose: 15.62 mg/kg/injection, schedule: Q01DX009 (ip), vehicle: Klucel (hydroxypropylcellulose) (HPC)) 110 % of control; (dose: 22.5 mg/kg/injection, schedule: Q01DX001 (ip), vehicle: saline) 101 % of control; (dose: 23.43 mg/kg/injection, schedule: Q01DX001 (ip), vehicle: Klucel (hydroxypropylcellulose) (HPC)) 121 % of control; (dose: 30.0 mg/kg/injection, schedule: Q01DX001 (ip), vehicle: Klucel (hydroxypropylcellulose) (HPC)) 112 % of control; (dose: 31.25 mg/kg/injection, schedule: Q01DX009 (ip), vehicle: Klucel (hydroxypropylcellulose) (HPC)) 108 % of control; (dose: 31.25 mg/kg/injection, schedule: Q04DX003 (ip), vehicle: Klucel (hydroxypropylcellulose) (HPC)) 107 % of control.

Turning to `N=C(N)S/C=C(/F)C(F)(F)CBr`, the T/C runs as follows: under setting [1], 95 % of control; under setting [2], 101 % of control; under setting [3], 113 % of control; under setting [4], 101 % of control.

For the molecule `NC(=S)N/N=C\c1ccccn1`, the T/C runs as follows: (dose: 6.25 mg/kg/injection, schedule: Q01DX009 (ip), vehicle: saline with Tween-80) 123 % of control; (dose: 6.25 mg/kg/injection, schedule: Q04DX003 (ip), vehicle: saline with Tween-80) 103 % of control; (dose: 8.0 mg/kg/injection, schedule: Q01DX009 (ip), vehicle: saline with Tween-80) 160 % of control; (dose: 12.0 mg/kg/injection, schedule: Q01DX009 (ip), vehicle: saline with Tween-80) 165 % of control; (dose: 12.5 mg/kg/injection, schedule: Q04DX003 (ip), vehicle: saline with Tween-80) 102 % of control; (dose: 25.0 mg/kg/injection, schedule: Q04DX003 (ip), vehicle: saline with Tween-80) 98 % of control.

Regarding `CCOC(=O)c1sc(SSc2nc(C)c(C(=O)OCC)s2)nc1C`, the T/C was 102 % of control under setting [5]; 94 % of control under setting [6]; 91 % of control (dose: 400.0 mg/kg/injection, schedule: Q04DX003 (ip), vehicle: saline with Tween-80).

Turning to `CC1(C)COC(c2ccc3ccccc3c2)OC1`, the T/C reads like this: under setting [7], 96 % of control; under setting [8], 101 % of control; under setting [9], 100 % of control.

On to `Cc1ccc(N=C2C=CC(=O)O2)cc1`, for which the T/C reads like this: under setting [10], 98 % of control; (dose: 200.0 mg/kg/injection, schedule: Q01DX009 (ip), vehicle: saline with Tween-80) 100 % of control; (dose: 400.0 mg/kg/injection, schedule: Q01DX009 (ip), vehicle: saline with Tween-80) 95 % of control.

For the molecule `CS(=O)CC(N)C(=O)O` (centres undefined), the T/C reads like this: under setting [2], 97 % of control; under setting [3], 102 % of control; under setting [4], 103 % of control.

As to `CN1C2CCCCC1C1CCCCC2[N+]1(C)C`, the T/C (dose: 75.0 mg/kg/injection, schedule: Q01DX001 (ip), vehicle: saline) is 96 % of control.

Turning to `CCC(O)(CC)C(=O)Nc1ccccc1`, the T/C reads like this: under setting [1], 98 % of control; under setting [2], 104 % of control; under setting [3], 96 % of control; under setting [4], 102 % of control.

As for `COC(=O)c1cc(C)c(Br)c(OC)c1`, the T/C is 98 % of control (dose: 100.0 mg/kg/injection, schedule: Q01DX009 (ip), vehicle: Klucel (hydroxypropylcellulose) (HPC)); 94 % of control under setting [7]; 100 % of control (dose: 200.0 mg/kg/injection, schedule: Q01DX009 (ip), vehicle: Klucel (hydroxypropylcellulose) (HPC)); 111 % of control under setting [8]; 100 % of control under setting [9].

Regarding `O=C(c1ccccc1)C(SC(=S)OCc1ccccc1)c1ccccc1` (centres undefined), the T/C is 98 % of control (dose: 25.0 mg/kg/injection, schedule: Q01DX009 (ip), vehicle: saline with Tween-80); 100 % of control (dose: 50.0 mg/kg/injection, schedule: Q01DX009 (ip), vehicle: saline with Tween-80); 96 % of control under setting [10].

For `COc1ccc(C2c3cc(OC)c(OC)c(S(N)(=O)=O)c3CC3C(=O)OCC32)cc1OC` (centres undefined), the T/C is 98 % of control under setting [2], 96 % of control under setting [3] and 98 % of control under setting [4].

Consider `O=C1CCC(=O)N1CCc1csc2ccccc12`, for which the T/C is, setting by setting: (dose: 100.0 mg/kg/injection, schedule: Q01DX001 (ip), vehicle: carboxymethylcellulose (CMC)) 110 % of control; (dose: 177.6 mg/kg/injection, schedule: Q01DX001 (ip), vehicle: carboxymethylcellulose (CMC)) 95 % of control and 92 % of control; (dose: 200.0 mg/kg/injection, schedule: Q01DX001 (ip), vehicle: carboxymethylcellulose (CMC)) 96 % of control; (dose: 266.8 mg/kg/injection, schedule: Q01DX001 (ip), vehicle: carboxymethylcellulose (CMC)) 93 % of control and 94 % of control; (dose: 600.0 mg/kg/injection, schedule: Q01DX001 (ip), vehicle: carboxymethylcellulose (CMC)) 101 % of control and 91 % of control.

Take `O=[N+]([O-])c1ccccc1CN1c2ccccc2N=C2c3ccccc3CC21` (centres undefined): the T/C runs as follows: under setting [7], 88 % of control; under setting [8], 91 % of control; under setting [9], 100 % of control.

For `O=P(CCO)(c1ccccc1)c1ccccc1`, the T/C under setting [5] is 112 % of control and the T/C under setting [6] was 101 % of control.

`C=CS(=O)(=O)Cc1ccc(Cl)cc1`: the T/C is, setting by setting: (dose: 10.0 mg/kg/injection, schedule: Q04DX002 (ip), vehicle: Klucel (hydroxypropylcellulose) (HPC)) 117 % of control; (dose: 20.0 mg/kg/injection, schedule: Q04DX002 (ip), vehicle: Klucel (hydroxypropylcellulose) (HPC)) 106 % of control; (dose: 40.0 mg/kg/injection, schedule: Q04DX002 (ip), vehicle: Klucel (hydroxypropylcellulose) (HPC)) 98 % of control.
